One series concerns HL-60. Nature of the series: Cell viability assay (Resazurin), cytotoxicity in HL60 cells. The settings on record: Homo sapiens, HL-60, read-out: IC50 at 48 h, 48 hours of incubation. It is filed as cell-based. On the procedure: Cell lines. Leukemic cell line, HL-60 (derived from a person with AML-M2), was used for determination of drug efficacy. Cells were obtained from the European Collection of Cell Cultures (ECACC). All cells were cultivated in appropriate media according to supplier recommendations.
Cell Viability assay, 96-well format. Cells were seeded into 96-well cell culture plates at concentrations required to ensure approximately 80% confluence in control (untreated cells) at the end of experiment (0.5×10^4-5×10^4 cell/well).
The sensitivity towards compounds according to the invention was determined using different concentrations of each compound ranging from 0.5 to 100 μM (0.5, 1, 2, 5, 10, 15, 20, 25, 30, 40, 50, 100 μM). Following 48 hours of incubation at 37° C. in a humidified atmosphere containing 5% CO2, the growth-inhibitory effect of compounds was analyzed using Resazurin, according to manufactures instructions.
To ensure good data quality and to minimize impact of pipetting errors, each compounds concentration was assessed based on mean fluorescence intensity from 8 separate wells. Compounds response were quantified by the half maximal inhibitory concentration (IC50) for each particular cell line, and determined by non-linear regression analysis of log-dose/response curves.
Statistical Analysis. Values were expressed as mean±SD or frequencies and proportions. Cell viability curves were determined using four parameter regression line. Differences between groups were determined by unpaired t test, Chi-square, Fisher's exact test or ANOVA, where appropriate. P<0.05 was considered statistically significant. Analysis was performed using GraphPad prism version 5.0 (GraphPad software, San Diego Calif. USA).
In general terms: Resazurin is reduced to fluorescent resorufin, in cell work by metabolically active cells.

Another series has as its system Raji cells. The experiment in a line: Cell cytotoxicity by Rituximab-compound 9 (Alamar Blue). The conditions noted are these: treatment of 50 μg/ml.

Data on 27 molecules can be found in US20220265845A1, “AMINOTHIOLESTER COMPOUNDS AND USES THEREOF” (ADVANCED BIODESIGN, priority 2019, published 2022).

As usually defined, the IC50 is the concentration that inhibits the measured activity by half.

Experimental for Raji cells: 50 000 viable Raji cells were plated in triplicate. […] The cells were incubated for 48 h at which time 20 μl of Alamar Blue (Thermo Fisher Scientific) was added to each well. The plates were incubated for an additional four hours and the fluorescence intensity read on a plate reader using excitation wavelength of 540 nm and an emission wavelength of 620 nm.

As to `CCOC(=O)C#CC(C)(C)N(C)C` [Example 14, ethyl 4-(dimethylamino)-4-methyl-pent-2-ynoate], the concentration for half-maximal inhibition (IC50) in the series on HL-60 was 40 µM. On the same count and under the same terms, as for `CSC(=O)C#CC(C)(C)N(C)CCOC(=O)N(C)CCN(C)C` [Example 23, S-methyl 2,5,10,11,11-pentamethyl-6-oxo-7-oxa-2,5,10-triazatetradec-12-yne-14-thioate], the figure is 10.6 µM. Take `COC[C@@H]1CCCN1C(C)(C)C#CC(=O)SC` [Example 24, (S)—S-methyl 4-(2-(methoxymethyl)pyrrolidin-1-yl)-4-methylpent-2-ynethioate]: the IC50 in the series with HL-60 was 20.5 µM. For the molecule `CN(C)C(C)(C)C#CC(=O)SCC(=O)O` [Example 16, 2-((4-(dimethylamino)-4-methylpent-2-ynoyl)thio)acetic acid], in the series with HL-60, the IC50 was found to be 22.5 µM.

Regarding `CSC(=O)C#CC(C)(C)N(C)CCOC(C)=O` [Example 21, 2-[(1,1-dimethyl-4-methylsulfanyl-4-oxo-but-2-ynyl)-methylamino]ethyl acetate], in the series on HL-60, the IC50 stood at 12.7 µM. The same measure, in the same setting: as for `C=CCOCCN(C)C(C)(C)C#CC(=O)SC` [Example 2, S-methyl 4-[2-allyloxyethyl(methyl)amino]-4-methyl-pent-2-ynethioate], the figure is 6.5 µM; as for `COc1ccc(COCCN(C)C(C)(C)C#CC(=O)SC)cc1` [Example 6, S-methyl 4-[2-[(4-methoxyphenyl)methoxy]ethyl-methyl-amino]-4-methyl-pent-2-ynethioate], 6.48 µM; as for `CO[C@@H]1CCN(C(C)(C)C#CC(=O)SC)C1` [Example 25, S-methyl 4-[(3R)-3-methoxypyrrolidin-1-yl]-4-methyl-pent-2-ynethioate], 16.5 µM. Consider `CSC(=O)C#CC(C)(C)N(C)CCOCc1cccc(Cl)c1` [Example 8, S-methyl 4-[2-[(3-chlorophenyl)methoxy]ethyl-methyl-amino]-4-methyl-pent-2-ynethioate], for which the IC50 in the series on HL-60 was found to be 7.07 µM. Still for that read-out and setting: as for `CN(C)C(C)(C)C#CC(=O)SCC(=O)OC(C)(C)C` [Example 15, tert-butyl 2-((4-(dimethylamino)-4-methylpent-2-ynoyl)thio)acetate], the figure is 25 µM.

In the case of `COc1ccc(COCCN(C)C(C)(C)C#CC(=O)SC)cc1OC` [Example 7, S-methyl 4-[2-[(3,4-dimethoxyphenyl)methoxy]ethyl-methyl-amino]-4-methyl-pent-2-ynethioate], the IC50 with HL-60 worked out at 6.08 µM. On the same count and under the same terms, the figure for `CSC(=O)C#CC(C)(C)N(C)CCOCc1ccc2ccccc2c1` [Example 19, S-methyl 4-methyl-4-[methyl-[2-(2-naphthylmethoxy)ethyl]amino]pent-2-ynethioate] is 11.3 µM. Turning to `CCOCCN(C)C(C)(C)C#CC(=O)SC` [Example 1, S-methyl 4-[2-ethoxyethyl(methyl)amino]-4-methyl-pent-2-ynethioate], the IC50 in the series with HL-60 came out at 4.98 µM. Same read-out and setting: as for `CSC(=O)C#CC(C)(C)N1CCC[C@H]1COCc1ccccc1` [Example 27, (S)—S-methyl 4-(2-((benzyloxy)methyl)pyrrolidin-1-yl)-4-methylpent-2-ynethioate], the figure is 10.4 µM; as for `COC(=O)C#CC(C)(C)N(C)C` [Example 13, methyl 4-(dimethylamino)-4-methyl-pent-2-ynoate], 42.7 µM; as for `CSC(=O)C#CC(C)(C)N(C)CCOCC1=C(C)CCCC1(C)C` [Example 20, S-methyl 4-methyl-4-[methyl-[2-[(2,6,6-trimethylcyclohexen-1-yl)methoxy]ethyl]amino]pent-2-ynethioate], 13.6 µM. For the molecule `CSC(=O)C#CC(C)(C)N(C)[C@@H]1CCC[C@H]1OCc1ccccc1` [Example 26, S-methyl 4-(((1R,2R)-2-(benzyloxy)cyclopentyl)(methyl)amino)-4-methylpent-2-ynethioate], the 50% inhibitory concentration (IC50) in the series on HL-60 came out at 17.5 µM. The same measure, in the same setting: as for `CSC(=O)C#CC(C)(C)N(C)CCOCc1cccc(F)c1` [Example 9, S-methyl 4-[2-[(3-fluorophenyl)methoxy]ethyl-methyl-amino]-4-methyl-pent-2-ynethioate], the figure is 6.65 µM; as for `COc1ccc(C(=O)OCCN(C)C(C)(C)C#CC(=O)SC)cc1OC` [Example 22, 2-[(1,1-dimethyl-4-methylsulfanyl-4-oxo-but-2-ynyl)-methylamino]ethyl-3,4-dimethoxybenzoate], 15.3 µM. Still for that read-out and setting: as for `CSC(=O)C#CC(C)(C)N(C)CCO` [Example 18, S-methyl 4-((2-hydroxyethyl)(methyl)amino)-4-methylpent-2-ynethioate], the figure is 6.75 µM; as for `CSC(=O)C#CC(C)(C)N(C)CCOCc1cccc(C)c1` [Example 4, S-methyl 4-methyl-4-[methyl-[2-(m-tolylmethoxy)ethyl]amino]pent-2-ynethioate], 5.62 µM. Still for that read-out and setting: as for `CSC(=O)C#CC(C)(C)N(C)CCOCc1cccnc1` [Example 11, S-methyl 4-methyl-4-[methyl-[2-(3-pyridylmethoxy)ethyl]amino]pent-2-ynethioate], the figure is 6.56 µM. Regarding `CSC(=O)C#CC(C)(C)N(C)CCCCOCc1ccccc1` [Example 17, S-methyl 4-((4-(benzyloxy)butyl)(methyl)amino)-4-methylpent-2-ynethioate], the IC50 in the series with HL-60 was found to be 11.3 µM.

As for “Rituximab: Antibody rituximab (Roche), target CD20 [reference compound]”, the “Mean viability of Raji cells in percentage comparing to the non-treated cells” value with Raji cells was 85.50%±2.268%. As for `CSC(=O)C#CC(C)(C)N1CC[C@@H](OCc2ccccc2)C1` [Example 28, (R)—S-methyl 4-(3-(benzyloxy)pyrrolidin-1-yl)-4-methylpent-2-ynethioate], in the series with HL-60, the IC50 is 11.8 µM. As to `CSC(=O)C#CC(C)(C)N(C)CCOCc1ccncc1` [Example 12, S-methyl 4-methyl-4-[methyl-[2-(4-pyridylmethoxy)ethyl]amino]pent-2-ynethioate], the IC50 with HL-60 was 5.68 µM. With `CSC(=O)C#CC(C)(C)N(C)CCOCc1ccccn1` [Example 10, S-methyl 4-methyl-4-[methyl-[2-(2-pyridylmethoxy)ethyl]amino]pent-2-ynethioate], the half-maximal inhibitory concentration (IC50) in the series with HL-60 was determined as 5.62 µM.
